Experiments:
BCR-KIT BaF3 cells = target: T1, BCR-KIT BaF3 cells (Homo sapiens, UniProt P10721); assay: BaF3 BCR-KIT cell proliferation assay (ATPlite); assay type: cell-based; conditions: read-out: Inhibition of Cell Proliferation IC50, BCR/BaF3 Kit
T1 construct: fused on or other part: P11274 (Breakpoint cluster region protein)
Procedure: (§1) Compounds are assessed in a variety of cell based assays. For example BaF3 cells engineered with any of BCR-FMS, BCR-KIT, BCR-FLT3, BCR-NTRK1, BCR-NTRK2, and BCR-NTRK3, are used in cell proliferation assays to assess inhibitory activity of Fms, Kit, Flt-3, TrkA, TrkB, and TrkC, respectively. An MV-4-11 (leukemia) cell proliferation assay is used to assess inhibitory activity in Flt-3, and SKNSH (human neuroblastoma) cell proliferation assay is used to assess efficacy of Fms/Trk inhibitors. Additional cells may be assayed similarly to assess the efficacy of Fms/Trk inhibitors, such as MiaPaCa (human pancreatic cancer) and Capan-1 (human pancreatic carcinoma) cells. Reagent and assay conditions are as follows: • BaF3 cells: • Maintained in RPMI containing 10% FBS, 1% PenStrep, 1% NEAA, and 1% L-Glutamine, supplemented with 1 mg/mL G418 and 5% WEHI-CM (or recombinant murine IL-3). • Confluent cells are split 1:50 to 1:100 every 3-4 days. • MV-4-11 cells: • Maintained in Iscove's Modified Dulbecco's Medium containing 10% FBS. • Confluent cells are split 1:4 every 3-4 days. • SKNSH cells: RPMI containing 10% FBS. On day 1, cells are counted, then centrifuged in a conical tube for 5 minutes at 1000 rpm. The supernatant is removed and cells are re-suspended as follows: • BaF3: resuspend in growth media +1 mg/mL G418 (without WEHFIL-3) to 2×10^5 cells/mL. • MV-4-11: resuspend in growth media to 5×10^5 cells/mL. • SKNSH: resuspend in growth media to 2×10^4 cells/mL. The cells are plated (50 μL, 150 μL for SKNSH cells) in each well of a 96-well dish (Corning 3610) and incubated at 37° C. in 5% CO2 overnight, cells plated to a final concentration of cells as follows: • BaF3: 10,000 cells per well. • MV-4-11: 25,000 cells per well. • SKNSH: 3,000 cells per well. On day 2, compound at a maximum concentration of 5 mM is serially diluted 1:3 for a total of 8 point titration with DMSO as a control. A 1 μL aliquot of each dilution point is added to 249 μL growth media and 50 μL is added to a well containing cells, providing 10 μM compound for the maximum concentration point. The cells are incubated for 3 days at 37° C. in 5% CO2. For SKNSH cells, a 0.75 μL aliquot of appropriate dilution in DMSO is added to 150 μL of cells. On day 5, ATPlite 1 step Luminescence Assay System (Perkin Elmer #6016739) is brought to room temperature along with the cell cultures. ATPlite is added to each well as follows: • BaF3: 25 μL per well. • MV-4-11: 40 μL per well. • SKNSH: 20 μL per well. The cells are incubated at room temperature for 10 minutes, then luminescence is read on Safire reader. The measured luminescence correlates directly with cell number, such that the reading as a function of compound concentration is used to determine the IC50 value.
(§2) It is understood that the results of these assays may vary as assay conditions are varied. Inhibition levels determined under the conditions described herein represent a relative activity for the compounds tested under the specific conditions employed. The cell based assays are likely to show variability due to the complexity of the system and the sensitivity thereof to any changes in the assay conditions. […] Results for compounds that are tested and show substantially no inhibition below the highest tested concentration are represented as “-” in the tables below. In some instances, the compounds were not tested in all of the assays, or assay results were not valid, as indicated by NA in the tables below.

SKNSH cells = assay: SKNSH (human neuroblastoma) cell proliferation assay (ATPlite); assay type: cell-based; conditions: SK-N-SH, read-out: Inhibition of Cell Proliferation IC50, SKNSH
Procedure: as §1, §2

T1 sequence (P10721 589-937): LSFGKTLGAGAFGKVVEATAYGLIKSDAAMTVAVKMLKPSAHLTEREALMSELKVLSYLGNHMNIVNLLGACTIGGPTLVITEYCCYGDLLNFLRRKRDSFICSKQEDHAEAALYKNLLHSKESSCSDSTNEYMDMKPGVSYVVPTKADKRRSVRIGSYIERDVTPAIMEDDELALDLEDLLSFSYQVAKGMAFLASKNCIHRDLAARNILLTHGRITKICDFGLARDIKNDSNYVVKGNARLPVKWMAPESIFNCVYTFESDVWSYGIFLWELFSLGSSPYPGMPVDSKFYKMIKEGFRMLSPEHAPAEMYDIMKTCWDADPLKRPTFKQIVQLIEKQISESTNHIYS

| SMILES | IC50 (BCR-KIT BaF3 cells) [nM] | IC50 (SKNSH cells) [nM] |
| --- | --- | --- |
| O=C(c1ccc(Nc2ccc(C(F)(F)F)nc2)nc1F)c1c[nH]c2ncnc(NC3CC3)c12 [Compound P-4091, [4-(cyclopropylamino)-7H-pyrrolo[2,3-d]pyrimidin-5-yl]-[2-fluoro-6-[[6-(trifluoromethyl)-3-pyridyl]amino]-3-pyridyl]methanone] | < 100 | < 100 |
| CNc1ncnc2[nH]cc(C(=O)c3ccc(Nc4ccc(C(F)(F)F)nc4)nc3F)c12 [Compound P-4092, [2-fluoro-6-[[6-(trifluoromethyl)-3-pyridyl]amino]-3-pyridyl]-[4-(methylamino)-7H-pyrrolo[2,3-d]pyrimidin-5-yl]methanone] | < 100 | < 1000 |
| CNc1ncnc2[nH]cc(C(=O)c3ccc(Nc4ccc(C5CC5)nc4)nc3F)c12 [Compound P-4094, [6-[(6-cyclopropyl-3-pyridyl)amino]-2-fluoro-3-pyridyl]-[4-(methylamino)-7H-pyrrolo[2,3-d]pyrimidin-5-yl]methanone] | < 100 | < 1000 |
| CCc1ccc(Nc2ccc(C(=O)c3c[nH]c4ncnc(NC5CCC5)c34)c(F)n2)cn1 [Compound P-4095, [4-(cyclobutylamino)-7H-pyrrolo[2,3-d]pyrimidin-5-yl]-[6-[(6-ethyl-3-pyridyl)amino]-2-fluoro-3-pyridyl]methanone] | < 100 | < 1000 |
| CCc1ccc(Nc2ccc(C(=O)c3c[nH]c4ncnc(NC5CCC(F)(F)CC5)c34)c(F)n2)cn1 [Compound P-4096, [4-[(4,4-difluorocyclohexyl)amino]-7H-pyrrolo[2,3-d]pyrimidin-5-yl]-[6-[(6-ethyl-3-pyridyl)amino]-2-fluoro-3-pyridyl]methanone] | < 1000 | < 10000 |
| CCc1ccc(Nc2ccc(C(=O)c3c[nH]c4ncnc(N[C@@H](C)c5ccc(F)cc5)c34)c(F)n2)cn1 [Compound P-4097, [6-[(6-ethyl-3-pyridyl)amino]-2-fluoro-3-pyridyl]-[4-[[(1S)-1-(4-fluorophenyl)ethyl]amino]-7H-pyrrolo[2,3-d]pyrimidin-5-yl]methanone] | < 1000 | < 10000 |
| CCc1ccc(Nc2ccc(C(=O)c3c[nH]c4ncnc(NCCCOC)c34)c(F)n2)cn1 [Compound P-4098, [6-[(6-ethyl-3-pyridyl)amino]-2-fluoro-3-pyridyl]-[4-(3-methoxypropylamino)-7H-pyrrolo[2,3-d]pyrimidin-5-yl]methanone] | < 100 | < 10000 |
| CCc1ccc(Nc2ccc(C(=O)c3c[nH]c4ncnc(NC5CCCC5)c34)c(F)n2)cn1 [Compound P-4099, [4-(cyclopentylamino)-7H-pyrrolo[2,3-d]pyrimidin-5-yl]-[6-[(6-ethyl-3-pyridyl)amino]-2-fluoro-3-pyridyl]methanone] | < 100 | < 1000 |
| CCCCNc1ncnc2[nH]cc(C(=O)c3ccc(Nc4ccc(CC)nc4)nc3F)c12 [Compound P-4100, [4-(butylamino)-7H-pyrrolo[2,3-d]pyrimidin-5-yl]-[6-[(6-ethyl-3-pyridyl)amino]-2-fluoro-3-pyridyl]methanone] | < 1000 | < 1000 |
| CC(C)Nc1ncnc2[nH]cc(C(=O)c3ccc(NC4CCCCC4)nc3F)c12 [Compound P-4101, [6-(cyclohexylamino)-2-fluoro-3-pyridyl]-[4-(isopropylamino)-7H-pyrrolo[2,3-d]pyrimidin-5-yl]methanone] | < 1000 | < 1000 |
| CNc1ncnc2[nH]cc(C(=O)c3ccc(NC4CCCCC4)nc3F)c12 [Compound P-4102, [6-(cyclohexylamino)-2-fluoro-3-pyridyl]-[4-(methylamino)-7H-pyrrolo[2,3-d]pyrimidin-5-yl]methanone] | < 1000 | < 1000 |
| COc1cncc(Nc2ccc(C(=O)c3c[nH]c4ncnc(NCC(F)(F)F)c34)c(F)n2)c1 [Compound P-4103, [2-fluoro-6-[(5-methoxy-3-pyridyl)amino]-3-pyridyl]-[4-(2,2,2-trifluoroethylamino)-7H-pyrrolo[2,3-d]pyrimidin-5-yl]methanone] | > 1000 | > 1000 |
| COc1cncc(Nc2ccc(C(=O)c3c[nH]c4ncnc(NC5CCCCC5)c34)c(F)n2)c1 [Compound P-4104, [4-(cyclohexylamino)-7H-pyrrolo[2,3-d]pyrimidin-5-yl]-[2-fluoro-6-[(5-methoxy-3-pyridyl)amino]-3-pyridyl]methanone] | > 1000 | < 1000 |
| CCCNc1ncnc2[nH]cc(C(=O)c3ccc(Nc4cncc(OC)c4)nc3F)c12 [Compound P-4105, [2-fluoro-6-[(5-methoxy-3-pyridyl)amino]-3-pyridyl]-[4-(propylamino)-7H-pyrrolo[2,3-d]pyrimidin-5-yl]methanone] | > 1000 | < 10000 |
| COc1cncc(Nc2ccc(C(=O)c3c[nH]c4ncnc(NC(C)C)c34)c(F)n2)c1 [Compound P-4106, [2-fluoro-6-[(5-methoxy-3-pyridyl)amino]-3-pyridyl]-[4-(isopropylamino)-7H-pyrrolo[2,3-d]pyrimidin-5-yl]methanone] | < 1000 | < 1000 |
| COc1cncc(Nc2ccc(C(=O)c3c[nH]c4ncnc(NC5CC5)c34)c(F)n2)c1 [Compound P-4107, [4-(cyclopropylamino)-7H-pyrrolo[2,3-d]pyrimidin-5-yl]-[2-fluoro-6-[(5-methoxy-3-pyridyl)amino]-3-pyridyl]methanone] | < 1000 | < 1000 |
| CNc1ncnc2[nH]cc(C(=O)c3ccc(Nc4cncc(OC)c4)nc3F)c12 [Compound P-4108, [2-fluoro-6-[(5-methoxy-3-pyridyl)amino]-3-pyridyl]-[4-(methylamino)-7H-pyrrolo[2,3-d]pyrimidin-5-yl]methanone] | > 1000 | > 1000 |
| CC(C)Nc1ncnc2[nH]cc(C(=O)c3ccc(NC4CCCCC4)nc3Cl)c12 [Compound P-4109, [2-chloro-6-(cyclohexylamino)-3-pyridyl]-[4-(isopropylamino)-7H-pyrrolo[2,3-d]pyrimidin-5-yl]methanone] | < 1000 | < 10000 |
| COc1ccc(Nc2ccc(C(=O)c3c[nH]c4ncnc(NC5CC5)c34)c(F)n2)cn1 [Compound P-4126, [4-(cyclopropylamino)-7H-pyrrolo[2,3-d]pyrimidin-5-yl]-[2-fluoro-6-[(6-methoxy-3-pyridyl)amino]-3-pyridyl]methanone] | < 100 | < 100 |
| Fc1cc(Cc2c[nH]c3ncnc(NC4CC4)c23)cnc1NC1CCC(F)(F)CC1 [Compound P-4127, N-cyclopropyl-5-[[6-[(4,4-difluorocyclohexyl)amino]-5-fluoro-3-pyridyl]methyl]-7H-pyrrolo[2,3-d]pyrimidin-4-amine] | < 100 | < 10000 |
